# Results: PMC2680759, “Non-Invasive Molecular Imaging of Fibrosis Using a Collagen-Targeted Peptidomimetic of the Platelet Collagen Receptor Glycoprotein VI” (PLoS ONE, 2009)
# Bridges are numbered along the chain shown (N, C = ends). Where no end group is shown, it is not given here.
# System: collagen fibers of the infarct scars
# Assay: Post mortem autoradiography of frozen myocardial sections
# Type: in vivo, rat
# Conditions: 99mTc-streptavidin-coupled peptides
# Protocol: After sacrificing the animals, the heart was removed and frozen, then 20-micrometer thick myocardial sections were cut perpendicular to the short axis of the ventricles in a cryostat, and exposed in a radioimager for 16 h. According to calibration studies performed with activity standards of tissue-equivalent homogenates, 50 counts/mm^2 of ^99m Tc-labeled tracers corresponded to ∼210 kBq/mg in autoradiography. The myocardial sections used for autoradiography, and contiguous heart sections (5 µm) fixed in acetone (−20°C), were stained with hematoxylin-eosin, Masson's trichrome and picrosirius red to determine the location and extent of the fibrotic myocardial scarring.
sequence,measurement,setting,value
SGSGCGPQGARGLTGASAGGPC (disulfide 5-22 (inferred)) [reference compound],Autoradiographic labeling of the infarct scar,frozen myocardium sections 6-8 hours after injection,little or no uptake
same,Mean infarct-to-remote myocardium radioactivity ratio,"rats with MI, mean±SEM, p<0.006",1.82±0.32
